# Source: patent US10597388B2, “Pyridazinone herbicides” (FMC CORPORATION, priority 2014, dated 2020)
# Experiments:
# Type in all cases: in vivo
# [1] = system: barnyardgrass (Echinochloa crus-galli); assay: Test C greenhouse herbicide test, pre- and postemergence
# Outline: (§1)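 Visual ratings on a 0 to 100 scale (0 = no effect, 100 = complete control) versus untreated controls, scored 13–15 d after treatment. Soil-applied preemergence to seeded loam/sand; foliar postemergence to 1- to 4-leaf plants (2–18 cm) in peat-vermiculite mix; compounds formulated in solvent plus surfactant.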
# [2] = system: blackgrass (Alopecurus myosuroides); assay: as above
# Outline: as §1
# corn (Zea mays) = assay: as above
# Outline: as §1
# [3] = system: crabgrass, large (large crabgrass, Digitaria sanguinalis); assay: as above
# Outline: as §1
# [4] = system: foxtail, giant (giant foxtail, Setaria faberii); assay: as above
# Outline: as §1
# [5] = system: johnsongrass (Sorghum halepense); assay: as above
# Outline: as §1
# [6] = system: lambsquarters (Chenopodium album); assay: as above
# Outline: as §1
# [7] = system: morningglory (Ipomoea coccinea); assay: as above
# Outline: as §1
# [8] = system: nutsedge, yellow (yellow nutsedge, Cyperus esculentus); assay: as above
# Outline: as §1
# [9] = system: oilseed rape (Brassica napus); assay: as above
# Outline: as §1
# [10] = system: pigweed (Amaranthus retroflexus); assay: as above
# Outline: as §1
# [11] = system: velvetleaf (Abutilon theophrasti); assay: as above
# Outline: as §1
# [12] = system: waterhemp (common waterhemp, Amaranthus rudis); assay: as above
# Outline: as §1
# [13] = system: wheat (winter wheat, Triticum aestivum); assay: as above
# Outline: as §1
# kochia (Kochia scoparia) = assay: Test C greenhouse herbicide test, postemergence; details: for Plant response rating, Kochia: Postemergence
# Outline: (§2)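 Seedlings are raised in pots of peat moss–vermiculite medium with starter nutrients, then receive postemergence test chemical at the 1- to 4-leaf stage. They are kept in the greenhouse 13 to 15 d and scored visually versus controls, 0 meaning no effect and 100 complete control.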
# [14] = system: oat, wild (wild oat, Avena fatua); assay: Test C greenhouse herbicide test, postemergence; details: for Plant response rating, Oat, Wild: Postemergence
# Outline: as §2
# [15] = Postemergence, 31 g ai/ha, 0 to 100 scale (0 no effect, 100 complete control)
# [16] = Postemergence, 125 g ai/ha, scale 0 to 100, 0 is no effect, 100 is complete control
# [17] = Postemergence, 250 g ai/ha, scale 0 to 100, 0 no effect, 100 complete control, 13 to 15 d
# [18] = Preemergence, 31 g ai/ha, scale 0 to 100, 0 is no effect, 100 is complete control
# [19] = Preemergence, 62 g ai/ha, scale 0 to 100, 0 is no effect, 100 is complete control
# [20] = Preemergence, 125 g ai/ha, scale 0 to 100, 0 is no effect, 100 is complete control
# [21] = Preemergence, 250 g ai/ha, scale 0 to 100 (0 no effect, 100 complete control)
# [22] = postemergence, 62 g ai/ha, scale 0 to 100, 0 no effect, 100 complete control
# [23] = 125 g ai/ha, scale 0 to 100, 0 is no effect, 100 is complete control
# [24] = 250 g ai/ha, scale 0 to 100, 0 no effect, 100 complete control, 13 to 15 d
smiles,measurement,setting,value
C#CCOC(=O)Oc1c(C)nn(C)c(=O)c1-c1c(C)sc2ccc(C)cc12 [Compound 87],Barnyardgrass plant response rating,[1]; [15],25
same,"Plant response rating, Barnyardgrass",[1]; [16],35
same,"Plant response rating, Barnyardgrass",[1]; [17],45
same,"Plant response rating, Barnyardgrass",[1]; [18],5
same,"Plant response rating, Barnyardgrass",[1]; [19],35
same,"Plant response rating, Barnyardgrass",[1]; [20],65
same,Barnyardgrass plant response rating,[1]; [21],85
same,Barnyardgrass plant response rating,[1]; [22],25
same,Blackgrass plant response rating,[2]; [15],10
same,"Plant response rating, Blackgrass",[2]; [16],60
same,"Plant response rating, Blackgrass",[2]; [17],65
same,"Plant response rating, Blackgrass",[2]; [18],40
same,"Plant response rating, Blackgrass",[2]; [19],30
same,"Plant response rating, Blackgrass",[2]; [20],85
same,Blackgrass plant response rating,[2]; [21],90
same,Blackgrass plant response rating,[2]; [22],35
same,Corn plant response rating,corn (Zea mays); [15],5
same,"Plant response rating, Corn",corn (Zea mays); [16],30
same,"Plant response rating, Corn",corn (Zea mays); [17],5
same,"Plant response rating, Corn",corn (Zea mays); [18],0
same,"Plant response rating, Corn",corn (Zea mays); [19],10
same,"Plant response rating, Corn",corn (Zea mays); [20],0
same,Corn plant response rating,corn (Zea mays); [21],10
same,Corn plant response rating,corn (Zea mays); [22],5
same,"Plant response rating, Crabgrass, Large",[3]; [16],25
same,"Plant response rating, Crabgrass, Large",[3]; [17],35
same,"Plant response rating, Crabgrass, Large",[3]; [18],10
same,"Plant response rating, Crabgrass, Large",[3]; [19],65
same,"Plant response rating, Crabgrass, Large",[3]; [20],80
same,"Crabgrass, Large plant response rating",[3]; [21],85
same,"Crabgrass, Large plant response rating",[3]; [22],10
same,"Plant response rating, Foxtail, Giant",[4]; [16],75
same,"Plant response rating, Foxtail, Giant",[4]; [17],85
same,"Plant response rating, Foxtail, Giant",[4]; [18],70
same,"Plant response rating, Foxtail, Giant",[4]; [19],80
same,"Plant response rating, Foxtail, Giant",[4]; [20],90
same,"Foxtail, Giant plant response rating",[4]; [21],95
same,"Foxtail, Giant plant response rating",[4]; [22],55
same,"Plant response rating, Johnsongrass",[5]; [16],5
same,"Plant response rating, Johnsongrass",[5]; [17],10
same,"Plant response rating, Johnsongrass",[5]; [18],5
same,"Plant response rating, Johnsongrass",[5]; [19],25
same,"Plant response rating, Johnsongrass",[5]; [20],40
same,Johnsongrass plant response rating,[5]; [21],40
same,Johnsongrass plant response rating,[5]; [22],5
same,"Plant response rating, Lambsquarters",[6]; [16],98
same,"Plant response rating, Lambsquarters",[6]; [17],100
same,"Plant response rating, Lambsquarters",[6]; [18],55
same,"Plant response rating, Lambsquarters",[6]; [19],80
same,"Plant response rating, Lambsquarters",[6]; [20],85
same,Lambsquarters plant response rating,[6]; [21],100
same,Lambsquarters plant response rating,[6]; [22],98
same,"Plant response rating, Morningglory",[7]; [16],100
same,"Plant response rating, Morningglory",[7]; [17],100
same,"Plant response rating, Morningglory",[7]; [18],85
same,"Plant response rating, Morningglory",[7]; [19],90
same,"Plant response rating, Morningglory",[7]; [20],95
same,Morningglory plant response rating,[7]; [21],95
same,Morningglory plant response rating,[7]; [22],98
same,"Plant response rating, Nutsedge, Yellow",[8]; [16],80
same,"Plant response rating, Nutsedge, Yellow",[8]; [17],85
same,"Plant response rating, Nutsedge, Yellow",[8]; [18],10
same,"Plant response rating, Nutsedge, Yellow",[8]; [19],35
same,"Plant response rating, Nutsedge, Yellow",[8]; [20],85
same,"Nutsedge, Yellow plant response rating",[8]; [21],80
same,"Nutsedge, Yellow plant response rating",[8]; [22],80
same,"Plant response rating, Oilseed Rape",[9]; [16],50
same,"Plant response rating, Oilseed Rape",[9]; [17],20
same,"Plant response rating, Oilseed Rape",[9]; [18],30
same,"Plant response rating, Oilseed Rape",[9]; [19],30
same,"Plant response rating, Oilseed Rape",[9]; [20],85
same,Oilseed Rape plant response rating,[9]; [21],80
same,Oilseed Rape plant response rating,[9]; [22],50
same,"Plant response rating, Pigweed",[10]; [16],90
same,"Plant response rating, Pigweed",[10]; [17],98
same,"Plant response rating, Pigweed",[10]; [18],75
same,"Plant response rating, Pigweed",[10]; [19],100
same,"Plant response rating, Pigweed",[10]; [20],100
same,Pigweed plant response rating,[10]; [21],100
same,Pigweed plant response rating,[10]; [22],90
same,"Plant response rating, Velvetleaf",[11]; [16],90
same,"Plant response rating, Velvetleaf",[11]; [17],90
same,"Plant response rating, Velvetleaf",[11]; [18],55
same,"Plant response rating, Velvetleaf",[11]; [19],85
same,"Plant response rating, Velvetleaf",[11]; [20],90
same,Velvetleaf plant response rating,[11]; [21],90
same,Velvetleaf plant response rating,[11]; [22],85
same,"Plant response rating, Waterhemp",[12]; [16],90
same,"Plant response rating, Waterhemp",[12]; [17],90
same,"Plant response rating, Waterhemp",[12]; [18],100
same,"Plant response rating, Waterhemp",[12]; [19],100
same,"Plant response rating, Waterhemp",[12]; [20],100
same,Waterhemp plant response rating,[12]; [21],100
same,Waterhemp plant response rating,[12]; [22],80
same,"Plant response rating, Wheat",[13]; [16],0
same,"Plant response rating, Wheat",[13]; [17],0
same,"Plant response rating, Wheat",[13]; [18],0
same,"Plant response rating, Wheat",[13]; [19],0
same,"Plant response rating, Wheat",[13]; [20],0
same,Wheat plant response rating,[13]; [21],0
same,Wheat plant response rating,[13]; [22],0
same,"Plant response rating, Kochia",kochia (Kochia scoparia); [23],90
same,"Plant response rating, Kochia",kochia (Kochia scoparia); [24],95
same,Kochia plant response rating,kochia (Kochia scoparia); [22],90
same,"Plant response rating, Oat, Wild",[14]; [23],85
same,"Plant response rating, Oat, Wild",[14]; [24],90
same,"Oat, Wild plant response rating",[14]; [22],90
